Data from ChEMBL document CHEMBL3885881, “DrugMatrix”.

Species: Rattus norvegicus
Assay: DrugMatrix - Regimen: Daily Repeat
Assay type: toxicity, organism-based, Sprague-Dawley
Parameters: regimen Daily Repeat, gender Male, age 6-8 weeks
Conditions: in vivo, po, route oral GAVAGE, vehicle 100 % WATER; for ABSOLUTE BASOPHIL / ABSOLUTE EOSINOPHIL / ABSOLUTE LYMPHOCYTE / ABSOLUTE MONOCYTE / ABSOLUTE SEGMENTED NEUTROPHIL / BASOPHIL / EOSINOPHIL / ERYTHROCYTE COUNT / HEMATOCRIT / HEMOGLOBIN / LEUKOCYTE COUNT / LYMPHOCYTE / MEAN CORPUSCULAR HEMOGLOBIN / MEAN CORPUSCULAR HEMOGLOBIN CONCENTRATION / MEAN CORPUSCULAR VOLUME / MONOCYTE / NEUTROPHIL / NUCLEATED RED BLOOD CELLS / PLATELET COUNT: tissue Blood; for ALANINE AMINOTRANSFERASE / ALBUMIN / ALKALINE PHOSPHATASE / ASPARTATE AMINOTRANSFERASE / BLOOD UREA NITROGEN / CARBON DIOXIDE / CHLORIDE / CHOLESTEROL / CREATINE PHOSPHOKINASE / CREATININE / GLUCOSE / LACTATE DEHYDROGENASE / LIPASE / PHOSPHORUS / POTASSIUM / SODIUM / TOTAL BILIRUBIN / TOTAL PROTEIN / URIC ACID: tissue Plasma
[1] = 20 mg/kg, 120 h, dose level Low, time 5 day
[2] = 70 mg/kg, 72 h, dose level High, time 3 day
[3] = 70 mg/kg, 120 h, dose level High, time 5 day

C=CCC1(C(C)CCC)C(=O)NC(=O)NC1=O (centres undefined) [SECOBARBITAL]
ABSOLUTE BASOPHIL [1]: 0 CELLS/uL | ABSOLUTE EOSINOPHIL [1]: 32 CELLS/uL | ABSOLUTE LYMPHOCYTE [1]: 7003.67 CELLS/uL | ABSOLUTE MONOCYTE [1]: 32 CELLS/uL | ABSOLUTE SEGMENTED NEUTROPHIL [1]: 565.67 CELLS/uL | BASOPHIL [1]: 0% | EOSINOPHIL [1]: 0.33% | ERYTHROCYTE COUNT [1]: 5.26 x10E6/uL | HEMATOCRIT [1]: 32.97% | HEMOGLOBIN [1]: 12.83 G/DL | LEUKOCYTE COUNT [1]: 7.63 x10E3/uL | LYMPHOCYTE [1]: 92% | MEAN CORPUSCULAR HEMOGLOBIN [1]: 24.43 pg | MEAN CORPUSCULAR HEMOGLOBIN CONCENTRATION [1]: 38.97 G/DL | MEAN CORPUSCULAR VOLUME [1]: 62.7 fL | MONOCYTE [1]: 0.33% | NEUTROPHIL [1]: 7.33% | NUCLEATED RED BLOOD CELLS [1]: 0.33 /100WBC | PLATELET COUNT [1]: 1182 x10E3/uL | ALANINE AMINOTRANSFERASE [1]: 49.33 u/L | ALBUMIN [1]: 3.97 G/DL | ALKALINE PHOSPHATASE [1]: 382 u/L | ASPARTATE AMINOTRANSFERASE [1]: 77.67 u/L | BLOOD UREA NITROGEN [1]: 13.67 mg/dL | CARBON DIOXIDE [1]: 34 mmol/L | CHLORIDE [1]: 99 MEQ/L | CHOLESTEROL [1]: 77.33 mg/dL | CREATINE PHOSPHOKINASE [1]: 254 u/L | CREATININE [1]: 0.16 mg/dL | GLUCOSE [1]: 144 mg/dL | LACTATE DEHYDROGENASE [1]: 142.33 u/L | LIPASE [1]: 9 u/L | PHOSPHORUS [1]: 11.07 mg/dL | POTASSIUM [1]: 5.94 MEQ/L | SODIUM [1]: 144.5 MEQ/L | TOTAL BILIRUBIN [1]: 0.17 mg/dL | TOTAL PROTEIN [1]: 5.87 G/DL | URIC ACID [1]: 0.4 mg/dL | ABSOLUTE BASOPHIL [2]: 0 CELLS/uL | ABSOLUTE EOSINOPHIL [2]: 0 CELLS/uL | ABSOLUTE LYMPHOCYTE [2]: 6560.67 CELLS/uL | ABSOLUTE MONOCYTE [2]: 45.33 CELLS/uL | ABSOLUTE SEGMENTED NEUTROPHIL [2]: 794 CELLS/uL | BASOPHIL [2]: 0% | EOSINOPHIL [2]: 0% | ERYTHROCYTE COUNT [2]: 5.13 x10E6/uL | HEMATOCRIT [2]: 31.93% | HEMOGLOBIN [2]: 12.3 G/DL | LEUKOCYTE COUNT [2]: 7.4 x10E3/uL | LYMPHOCYTE [2]: 88.67% | MEAN CORPUSCULAR HEMOGLOBIN [2]: 24 pg | MEAN CORPUSCULAR HEMOGLOBIN CONCENTRATION [2]: 38.53 G/DL | MEAN CORPUSCULAR VOLUME [2]: 62.27 fL | MONOCYTE [2]: 0.67% | NEUTROPHIL [2]: 10.67% | NUCLEATED RED BLOOD CELLS [2]: 0.33 /100WBC | PLATELET COUNT [2]: 827 x10E3/uL | ALANINE AMINOTRANSFERASE [2]: 56.67 u/L | ALBUMIN [2]: 4.03 G/DL | ALKALINE PHOSPHATASE [2]: 339 u/L | ASPARTATE AMINOTRANSFERASE [2]: 83 u/L | BLOOD UREA NITROGEN [2]: 12 mg/dL | CARBON DIOXIDE [2]: 34.67 mmol/L | CHLORIDE [2]: 98.67 MEQ/L | CHOLESTEROL [2]: 74.67 mg/dL | CREATINE PHOSPHOKINASE [2]: 397.33 u/L | CREATININE [2]: 0.11 mg/dL | GLUCOSE [2]: 142.33 mg/dL | LACTATE DEHYDROGENASE [2]: 178.33 u/L | LIPASE [2]: 9.67 u/L | PHOSPHORUS [2]: 11.4 mg/dL | POTASSIUM [2]: 6.11 MEQ/L | SODIUM [2]: 143 MEQ/L | TOTAL BILIRUBIN [2]: 0.17 mg/dL | TOTAL PROTEIN [2]: 5.87 G/DL | URIC ACID [2]: 0.63 mg/dL | ABSOLUTE BASOPHIL [3]: 0 CELLS/uL | ABSOLUTE EOSINOPHIL [3]: 40.33 CELLS/uL | ABSOLUTE LYMPHOCYTE [3]: 5577 CELLS/uL | ABSOLUTE MONOCYTE [3]: 23 CELLS/uL | ABSOLUTE SEGMENTED NEUTROPHIL [3]: 693 CELLS/uL | BASOPHIL [3]: 0% | EOSINOPHIL [3]: 0.67% | ERYTHROCYTE COUNT [3]: 5.58 x10E6/uL | HEMATOCRIT [3]: 33.8% | HEMOGLOBIN [3]: 13.07 G/DL | LEUKOCYTE COUNT [3]: 6.33 x10E3/uL | LYMPHOCYTE [3]: 88% | MEAN CORPUSCULAR HEMOGLOBIN [3]: 23.4 pg | MEAN CORPUSCULAR HEMOGLOBIN CONCENTRATION [3]: 38.67 G/DL | MEAN CORPUSCULAR VOLUME [3]: 60.5 fL | MONOCYTE [3]: 0.33% | NEUTROPHIL [3]: 11% | NUCLEATED RED BLOOD CELLS [3]: 0.33 /100WBC | PLATELET COUNT [3]: 1210.33 x10E3/uL | ALANINE AMINOTRANSFERASE [3]: 59.33 u/L | ALBUMIN [3]: 4.03 G/DL | ALKALINE PHOSPHATASE [3]: 373.67 u/L | ASPARTATE AMINOTRANSFERASE [3]: 85.33 u/L | BLOOD UREA NITROGEN [3]: 15.33 mg/dL | CARBON DIOXIDE [3]: 32.33 mmol/L | CHLORIDE [3]: 100 MEQ/L | CHOLESTEROL [3]: 63.33 mg/dL | CREATINE PHOSPHOKINASE [3]: 260.67 u/L | CREATININE [3]: 0.13 mg/dL | GLUCOSE [3]: 147 mg/dL | LACTATE DEHYDROGENASE [3]: 127.67 u/L | LIPASE [3]: 9 u/L | PHOSPHORUS [3]: 10.93 mg/dL | POTASSIUM [3]: 5.66 MEQ/L | SODIUM [3]: 145.65 MEQ/L | TOTAL BILIRUBIN [3]: 0.1 mg/dL | TOTAL PROTEIN [3]: 5.8 G/DL | URIC ACID [3]: 0.73 mg/dL
